{"source": "patent US5629011A", "about": "“Composition for nasal administration” (priority 1992, dated 1997)", "key": {"[1]": {"assay": "Pharmacokinetic parameters after intravenous administration to sheep", "details": "for Vd: Apparent Volume of Distibution; for AUC at 5 h: Area Under Curve; for half-life: T1/2, i.v. 0.015 mg/kg", "procedure": "(§1) The chitosan concentration was 0.5%. The solution was administered into the sheep nostril using a simple spray pump device followed by serial blood sampling. […] Control experiments were conducted using i.v. dosage of the glucuronide.\n(§2) Blood samples (10 ml) were taken at the following times.\n(§3) The area under the curve (AUC) was calculated over 0-300 minutes using the linear trapezoidal method. […] Clearance was calculated by dividing the dose by the AUC, and the volume of distribution was calculated by dividing the clearance by the elimination rate constant. The bioavailability was calculated by dividing the mean AUC for nasal administration by the normalised mean AUC after intravenous administration."}, "[2]": {"details": "cited from earlier work; for unwanted side effects: metabolites compared with morphine, for morphine: therapeutic use"}, "in vivo": {"assay": "in vivo", "details": "sheep", "procedure": "as §1, §2\nPlasma was separated by centrifugation soon after sampling and the plasma samples (approximately 5 ml) were stored at -80° C. prior to analysis.\nBiomed. Appl. 230, 427. […] The limit of quantification of the method is 1 ng/ml for a 0.5 ml plasma sample and the assay is linear over the range of 1 to 1200 ng/ml drug concentration."}, "[3]": {"assay": "Pharmacokinetic parameters after nasal administration to sheep", "details": "for Vd: Apparent Volume of Distribution; for AUC at 5 h: Area Under Curve; for half-life: T1/2, nasal 0.15 mg/kg with 0.5% chitosan", "procedure": "as §1, §2, §3"}, "[4]": {"details": "intracerebroventricular, mice; cited from earlier work"}, "[5]": {"details": "subcutaneous injection, rat; cited from earlier work"}, "[6]": {"details": "i.v. 0.015 mg/kg, individual sheep NF, OF, PF"}, "[7]": {"details": "0.15 mg/kg, morphine-6-glucuronide concentration (plasma)"}, "[8]": {"details": "iv, 0.015 mg/kg, morphine-6-glucuronide concentration (plasma)"}, "[9]": {"details": "nasal 0.15 mg/kg with 0.5% chitosan, individual sheep IF, JF, KF, 0.15 mg/kg"}}, "note": "Where “and” joins values, the source holds several entries; their conditions need not be identical. Equal values may be shown once."}
{"smiles": "CN1CC[C@]23c4c5ccc(O)c4O[C@H]2[C@@H](O[C@@H]2O[C@H](C(=O)O)[C@@H](O)[C@H](O)[C@H]2O)C=C[C@H]3[C@H]1C5", "note": "[morphine-6-glucuronide]", "values": [{"measurement": "Area Under Curve", "setting": "[1]; i.v. 0.015 mg/kg, 0-300 min, individual sheep NF, OF, PF, 300 min", "value": "3819 ng·min/mL and 2560 ng·min/mL"}, {"measurement": "Apparent Volume of Distibution", "setting": "[1]; [6]", "value": "0.30 lkg^-1 and 0.35 lkg^-1"}, {"measurement": "Cmax", "setting": "[1]; [6]", "value": "55 ng/mL and 50 ng/mL"}, {"measurement": "T1/2", "setting": "[1]; [6]", "value": "53 min and 42 min"}, {"measurement": "Tmax", "setting": "[1]; [6]", "value": "2 min and 5 min"}, {"measurement": "clearance", "setting": "[1]; [6]", "value": "3.9 mL/min/kg and 5.9 mL/min/kg"}, {"measurement": "Vd", "setting": "[1]; sheep, plasma, iv, 0.015 mg/kg, i.v. 0.015 mg/kg, individual sheep NF, OF, PF", "value": 0.58, "unit": "L/kg"}, {"measurement": "Vd", "setting": "[1]; sheep, plasma, iv, 0.015 mg/kg, i.v. 0.015 mg/kg, mean of 3 sheep", "value": 0.41, "unit": "L/kg"}, {"measurement": "AUC at 5 h", "setting": "[1]; sheep, plasma, iv, 0.015 mg/kg, i.v. 0.015 mg/kg, 0-300 min, individual sheep NF, OF, PF", "value": 36.1, "unit": "ng·h/mL"}, {"measurement": "AUC at 5 h", "setting": "[1]; sheep, plasma, iv, 0.015 mg/kg, i.v. 0.015 mg/kg, 0-300 min, mean of 3 sheep", "value": 47.5, "unit": "ng·h/mL"}, {"measurement": "clearance", "setting": "[1]; sheep, plasma, iv, 0.015 mg/kg, Clearance, i.v. 0.015 mg/kg, individual sheep NF, OF, PF", "value": 6.9, "unit": "mL/min/kg"}, {"measurement": "clearance", "setting": "[1]; sheep, plasma, iv, 0.015 mg/kg, Clearance, i.v. 0.015 mg/kg, mean of 3 sheep", "value": 5.6, "unit": "mL/min/kg"}, {"measurement": "Cmax", "setting": "[1]; sheep, plasma, iv, 0.015 mg/kg, Cmax, i.v. 0.015 mg/kg, individual sheep NF, OF, PF", "value": 44, "unit": "ng/mL"}, {"measurement": "Cmax", "setting": "[1]; sheep, plasma, iv, 0.015 mg/kg, Cmax, i.v. 0.015 mg/kg, mean of 3 sheep", "value": 50, "unit": "ng/mL"}, {"measurement": "half-life", "setting": "[1]; sheep, plasma, iv, 0.015 mg/kg, individual sheep NF, OF, PF", "value": 58, "unit": "min"}, {"measurement": "half-life", "setting": "[1]; sheep, plasma, iv, 0.015 mg/kg, mean of 3 sheep", "value": 51, "unit": "min"}, {"measurement": "Tmax", "setting": "[1]; sheep, plasma, iv, 0.015 mg/kg, Tmax, i.v. 0.015 mg/kg, mean of 3 sheep", "value": 3, "unit": "min"}, {"measurement": "biological half-life compared with morphine", "setting": "[2]", "value": "may also have a longer biological half-life"}, {"measurement": "unwanted side effects", "setting": "[2]", "value": "less likely to have the unwanted side effects"}, {"measurement": "concentration at 10 min", "setting": "in vivo; [7]", "value": 89.1, "unit": "ng/mL"}, {"measurement": "concentration at 0.25 h", "setting": "in vivo; [7]", "value": 121, "unit": "ng/mL"}, {"measurement": "concentration at 20 min", "setting": "in vivo; [7]", "value": 102, "unit": "ng/mL"}, {"measurement": "concentration at 0.5 h", "setting": "in vivo; [7]", "value": 107, "unit": "ng/mL"}, {"measurement": "concentration at 0.75 h", "setting": "in vivo; [7]", "value": 108, "unit": "ng/mL"}, {"measurement": "concentration at 1 h", "setting": "in vivo; [7]", "value": 66.7, "unit": "ng/mL"}, {"measurement": "concentration at 1.5 h", "setting": "in vivo; [7]", "value": 41.1, "unit": "ng/mL"}, {"measurement": "concentration at 2 h", "setting": "in vivo; [7]", "value": 21.9, "unit": "ng/mL"}, {"measurement": "concentration at 3 h", "setting": "in vivo; [7]", "value": 10.2, "unit": "ng/mL"}, {"measurement": "concentration at 6 h", "setting": "in vivo; [7]", "value": "< 1", "unit": "ng/mL"}, {"measurement": "morphine-6-glucuronide concentration (plasma)", "setting": "in vivo; iv, 0.015 mg/kg, 2.5 h", "value": 3.5, "unit": "ng/mL"}, {"measurement": "concentration at 2 min", "setting": "in vivo; [8]", "value": 43.8, "unit": "ng/mL"}, {"measurement": "concentration at 5 min", "setting": "in vivo; [8]", "value": 40.3, "unit": "ng/mL"}, {"measurement": "concentration at 10 min", "setting": "in vivo; [8]", "value": 36.1, "unit": "ng/mL"}, {"measurement": "concentration at 0.25 h", "setting": "in vivo; [8]", "value": 28.6, "unit": "ng/mL"}, {"measurement": "concentration at 20 min", "setting": "in vivo; [8]", "value": 23.2, "unit": "ng/mL"}, {"measurement": "concentration at 0.5 h", "setting": "in vivo; [8]", "value": 22.5, "unit": "ng/mL"}, {"measurement": "concentration at 1.5 h", "setting": "in vivo; [8]", "value": 9.4, "unit": "ng/mL"}, {"measurement": "concentration at 3 h", "setting": "in vivo; [8]", "value": 2, "unit": "ng/mL"}, {"measurement": "concentration at 4 h", "setting": "in vivo; [8]", "value": "< 1", "unit": "ng/mL"}, {"measurement": "concentration at 5 h", "setting": "in vivo; [8]", "value": "< 1", "unit": "ng/mL"}, {"measurement": "concentration at 6 h", "setting": "in vivo; [8]", "value": "< 1", "unit": "ng/mL"}, {"measurement": "bioavailability", "setting": "[3]; nasal 0.15 mg/kg with 0.5% chitosan, vs normalised mean i.v. AUC, individual sheep IF, JF, KF, 0.15 mg/kg", "value": "37.3% and 26.6%"}, {"measurement": "Area Under Curve", "setting": "[3]; nasal 0.15 mg/kg with 0.5% chitosan, 0-300 min, individual sheep IF, JF, KF, 0.15 mg/kg, 300 min", "value": "10631 ng·min/mL and 7581 ng·min/mL"}, {"measurement": "Apparent Volume of Distribution", "setting": "[3]; nasal 0.15 mg/kg with 0.5% chitosan, corrected for bioavailable dose, individual sheep IF, JF, KF, 0.15 mg/kg", "value": 0.31, "unit": "lkg^-1"}, {"measurement": "clearance", "setting": "[3]; nasal 0.15 mg/kg with 0.5% chitosan, corrected for bioavailable dose, mean of 3 sheep", "value": 5.3, "unit": "mL/min/kg"}, {"measurement": "Cmax", "setting": "[3]; [9]", "value": "165 ng/mL and 110 ng/mL"}, {"measurement": "T1/2", "setting": "[3]; [9]", "value": "41 min and 42 min"}, {"measurement": "Tmax", "setting": "[3]; [9]", "value": 10, "unit": "min"}, {"measurement": "clearance", "setting": "[3]; sheep, plasma, 0.15 mg/kg", "value": 5.3, "unit": "mL/min/kg"}, {"measurement": "Vd", "setting": "[3]; sheep, plasma, 0.15 mg/kg, nasal 0.15 mg/kg with 0.5% chitosan, corrected for bioavailable dose, individual sheep IF, JF, KF", "value": 0.37, "unit": "L/kg"}, {"measurement": "Vd", "setting": "[3]; sheep, plasma, 0.15 mg/kg, nasal 0.15 mg/kg with 0.5% chitosan, corrected for bioavailable dose, mean of 3 sheep", "value": 0.33, "unit": "L/kg"}, {"measurement": "AUC at 5 h", "setting": "[3]; sheep, plasma, 0.15 mg/kg, nasal 0.15 mg/kg with 0.5% chitosan, 0-300 min, individual sheep IF, JF, KF", "value": 156, "unit": "ng·h/mL"}, {"measurement": "AUC at 5 h", "setting": "[3]; sheep, plasma, 0.15 mg/kg, nasal 0.15 mg/kg with 0.5% chitosan, 0-300 min, mean of 3 sheep", "value": 153, "unit": "ng·h/mL"}, {"measurement": "bioavailability", "setting": "[3]; sheep, plasma, 0.15 mg/kg, Bioavailability, nasal 0.15 mg/kg with 0.5% chitosan, vs normalised mean i.v. AUC, individual sheep IF, JF, KF", "value": 32.9, "unit": "%"}, {"measurement": "Cmax", "setting": "[3]; sheep, plasma, 0.15 mg/kg, Cmax, nasal 0.15 mg/kg with 0.5% chitosan, individual sheep IF, JF, KF", "value": 121, "unit": "ng/mL"}, {"measurement": "Cmax", "setting": "[3]; sheep, plasma, 0.15 mg/kg, Cmax, nasal 0.15 mg/kg with 0.5% chitosan, mean of 3 sheep", "value": 132, "unit": "ng/mL"}, {"measurement": "half-life", "setting": "[3]; sheep, plasma, 0.15 mg/kg, individual sheep IF, JF, KF", "value": 51, "unit": "min"}, {"measurement": "half-life", "setting": "[3]; sheep, plasma, 0.15 mg/kg, mean of 3 sheep", "value": 45, "unit": "min"}, {"measurement": "Tmax", "setting": "[3]; sheep, plasma, 0.15 mg/kg, Tmax, nasal 0.15 mg/kg with 0.5% chitosan, individual sheep IF, JF, KF", "value": 15, "unit": "min"}, {"measurement": "Tmax", "setting": "[3]; sheep, plasma, 0.15 mg/kg, Tmax, nasal 0.15 mg/kg with 0.5% chitosan, mean of 3 sheep", "value": 13, "unit": "min"}, {"measurement": "bioavailability", "setting": "[3]; sheep, plasma, 0.15 mg/kg, mean nasal bioavailability, nasal 0.15 mg/kg with 0.5% chitosan, vs i.v. AUC normalised to 0.15 mg/kg, mean, n=3", "value": 32.3, "unit": "%"}]}
{"smiles": "CN1CC[C@]23c4c5ccc(O)c4O[C@H]2[C@@H](OS(=O)(=O)O)C=C[C@H]3[C@H]1C5", "note": "[morphine-6-sulphate]", "values": [{"measurement": "analgesic potency compared with morphine", "setting": "[4]", "value": "more potent analgesic than morphine"}, {"measurement": "unwanted side effects", "setting": "[2]", "value": "less likely to have the unwanted side effects"}, {"measurement": "antinociceptive activity", "setting": "[5]", "value": "potent antinociceptive activity"}]}
